Measurements published in US12590066B2, “Fused-heterocyclyl-carbonohydrazonoyl dicyanide compounds and use thereof” (KOREA INSTITUTE OF SCIENCE AND TECHNOLOGY, priority 2020, dated 2026).

Experiments:
CYP2C19 = target: T1, CYP2C19 (Homo sapiens, UniProt P33261); assay: Inhibitory effect on CYP coenzyme activity, human liver microsomes; type: in vitro ADME; settings: 10 μM compound, human liver microsomes 0.25 mg/mL, substrate S-mephenytoin, 15 minutes
T1 construct: human liver microsomes (0.25 mg/mL); from tissue; host or cells: human liver microsomes
T1 sequence (P33261 whole entry): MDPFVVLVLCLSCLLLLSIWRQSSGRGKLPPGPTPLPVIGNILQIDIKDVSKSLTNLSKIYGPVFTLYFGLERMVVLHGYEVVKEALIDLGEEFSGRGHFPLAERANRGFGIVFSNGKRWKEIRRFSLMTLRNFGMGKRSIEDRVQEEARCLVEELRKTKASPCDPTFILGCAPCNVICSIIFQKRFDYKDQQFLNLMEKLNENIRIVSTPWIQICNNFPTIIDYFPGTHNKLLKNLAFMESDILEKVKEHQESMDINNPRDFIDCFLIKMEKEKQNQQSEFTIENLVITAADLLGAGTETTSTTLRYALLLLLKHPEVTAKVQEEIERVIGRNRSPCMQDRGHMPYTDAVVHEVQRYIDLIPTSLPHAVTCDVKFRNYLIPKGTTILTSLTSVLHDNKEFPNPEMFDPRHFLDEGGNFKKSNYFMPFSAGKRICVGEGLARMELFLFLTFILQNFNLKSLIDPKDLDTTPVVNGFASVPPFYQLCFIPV
Outline: (§1)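 Human liver microsomes (0.25 mg/mL, pH 7.4 phosphate) with compound at 0 or 10 μM and substrate cocktail (50 μM phenacetin, 10 μM diclofenac, 100 μM S-mephenytoin, 5 μM dextromethorphan), preincubated 5 min then 15 min at 37° C with NADPH. Metabolites quantified by LC-MS/MS (MRM); values are % activity versus untreated control.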

CYP1A2 = target: T2, CYP1A2 (Homo sapiens, UniProt P05177); assay: as above; type: in vitro ADME; settings: 10 μM compound, human liver microsomes 0.25 mg/mL, substrate phenacetin, 15 minutes
T2 construct: human liver microsomes (0.25 mg/mL); from tissue; host or cells: human liver microsomes
T2 sequence (P05177 1-516): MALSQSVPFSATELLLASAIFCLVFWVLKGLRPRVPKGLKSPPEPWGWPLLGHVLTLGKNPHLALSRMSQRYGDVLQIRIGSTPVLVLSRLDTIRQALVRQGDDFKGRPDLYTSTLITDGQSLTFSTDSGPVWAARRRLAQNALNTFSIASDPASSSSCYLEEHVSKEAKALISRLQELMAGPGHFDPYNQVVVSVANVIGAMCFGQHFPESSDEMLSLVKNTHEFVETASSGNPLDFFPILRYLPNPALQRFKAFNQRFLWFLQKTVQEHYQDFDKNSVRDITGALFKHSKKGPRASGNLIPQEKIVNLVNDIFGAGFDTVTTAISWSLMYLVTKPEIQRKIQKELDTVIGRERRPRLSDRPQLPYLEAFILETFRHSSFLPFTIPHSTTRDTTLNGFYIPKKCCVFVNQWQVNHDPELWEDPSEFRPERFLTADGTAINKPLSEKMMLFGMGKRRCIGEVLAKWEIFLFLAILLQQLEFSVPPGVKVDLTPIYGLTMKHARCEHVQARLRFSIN
Outline: as §1

CYP2D6 = target: T3, CYP2D6 (Homo sapiens, UniProt P10635); assay: as above; type: in vitro ADME; settings: 10 μM compound, human liver microsomes 0.25 mg/mL, substrate dextromethorphan, 15 minutes
T3 construct: human liver microsomes (0.25 mg/mL); from tissue; host or cells: human liver microsomes
T3 sequence (P10635 whole entry): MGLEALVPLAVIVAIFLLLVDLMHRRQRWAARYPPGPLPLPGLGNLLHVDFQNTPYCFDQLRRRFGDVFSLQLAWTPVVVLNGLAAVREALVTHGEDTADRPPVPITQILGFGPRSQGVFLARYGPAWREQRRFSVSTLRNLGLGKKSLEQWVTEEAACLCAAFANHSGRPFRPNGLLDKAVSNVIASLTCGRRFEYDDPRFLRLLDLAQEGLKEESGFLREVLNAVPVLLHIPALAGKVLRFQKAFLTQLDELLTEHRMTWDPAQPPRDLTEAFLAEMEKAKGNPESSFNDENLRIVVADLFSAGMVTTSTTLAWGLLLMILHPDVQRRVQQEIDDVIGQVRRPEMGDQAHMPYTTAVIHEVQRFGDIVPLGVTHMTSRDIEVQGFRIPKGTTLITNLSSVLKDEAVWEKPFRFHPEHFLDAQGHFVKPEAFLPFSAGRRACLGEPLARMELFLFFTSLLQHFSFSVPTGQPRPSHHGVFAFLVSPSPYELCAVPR
Outline: as §1

Tau-BiFC cells = assay: Cell viability (stained nuclei count) in Tau-BiFC cells; type: cell-based; settings: 10 μM compound, 48 hours; Forskolin-only group = 100% cell viability
Outline: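 Tau-BiFC cells co-treated 48 h with 30 μM forskolin and compounds (1, 3, 10 μM screen; 0.01–30 μM dose-response). BiFC fluorescence normalized to forskolin-only (100% aggregation) minus untreated gives aggregation inhibition and IC50; viability as Hoechst-stained nuclei count relative to forskolin-only.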

Compound | CYP2C19 coenzyme activity (%) with respect to control group not treated (CYP2C19) [%] | CYP1A2 coenzyme activity (%) with respect to control group not treated (CYP1A2) [%] | CYP2D6 coenzyme activity (%) with respect to control group not treated (CYP2D6) [%] | Cell viability (% @10 μM) (Tau-BiFC cells) [%]
CC(C)n1c(=O)oc2cc(NN=C(C#N)C#N)ccc21 [Compound 20, (3-isopropyl-2-oxo-2,3-dihydrobenzo[d]oxazol-6-yl)carbonohydrazonoyl dicyanide] | 85.7 | 87.3 | 98.1 | 106
CC(C)n1c(=O)n(C(F)F)c2cc(NN=C(C#N)C#N)ccc21 [Compound 43, (3-(difluoromethyl)-1-isopropyl-2-oxo-2,3-dihydro-1H-benzo[d]imidazol-5-yl)carbonohydrazonoyl dicyanide] | 60.2 | 61.7 | 82.2 | 96
CCn1c(=O)n(C(C)C)c2ncc(NN=C(C#N)C#N)cc21 [Compound 55, (1-ethyl-3-isopropyl-2-oxo-2,3-dihydro-1H-imidazo[4,5-b]pyridin-6-yl)carbonohydrazonoyl dicyanide] | 73.1 | 58.4 | 85.8 | 124
Cn1c(=O)n(C)c2c(Cl)cc(NN=C(C#N)C#N)cc21 [Compound 11, (7-chloro-1,3-dimethyl-2-oxo-2,3-dihydro-1H-benzo[d]imidazol-5-yl)carbonohydrazonoyl dicyanide] | 88.4 | 73.7 | >100 | 142.3
Cn1c(=O)n(C(F)F)c2cc(NN=C(C#N)C#N)ccc21 [Compound 37, (3-(difluoromethyl)-1-methyl-2-oxo-2,3-dihydro-1H-benzo[d]imidazol-5-yl)carbonohydrazonoyl dicyanide] | 90.7 | 64.6 | >100 | 121
N#CC(C#N)=NNc1ccc2c(c1)oc(=O)n2C(F)F [Compound 21, (3-(difluoromethyl)-2-oxo-2,3-dihydrobenzo[d]oxazol-6-yl)carbonohydrazonoyl dicyanide] | 83.7 | 79.6 | 89.1 | 135
Cn1c(=O)n(C)c2cc(NN=C(C#N)C#N)c(Cl)cc21 [Compound 10, (6-chloro-1,3-dimethyl-2-oxo-2,3-dihydro-1H-benzo[d]imidazol-5-yl)carbonohydrazonoyl dicyanide] | 94.6 | 94.2 | >100 | 145.3
N#CC(C#N)=NNc1ccc2c(c1)n(C(F)F)c(=O)n2C(F)F [Compound 24, (1,3-bis(difluoromethyl)-2-oxo-2,3-dihydro-1H-benzo[d]imidazol-5-yl)carbonohydrazonoyl dicyanide] | 73.9 | 32.8 | 82.5 | 125.1
Cn1c(=O)oc2cc(NN=C(C#N)C#N)ccc21 [Compound 16, (3-methyl-2-oxo-2,3-dihydrobenzo[d]oxazol-6-yl)carbonohydrazonoyl dicyanide] | 90.8 | 91.5 | >100 | 129.8
CCn1c(=O)n(C)c2cc(NN=C(C#N)C#N)cnc21 [Compound 48, (3-ethyl-1-methyl-2-oxo-2,3-dihydro-1H-imidazo[4,5-b]pyridin-6-yl)carbonohydrazonoyl dicyanide] | >100 | >100 | >100 | 143
Cn1ccc2c(NN=C(C#N)C#N)cccc2c1=O [Compound 5, (2-methyl-1-oxo-1,2-dihydroisoquinolin-5-yl)carbonohydrazonoyl dicyanide] | >100 | 70.7 | 93.1 | 41.4
N#CC(C#N)=NNc1cccc2c(=O)[nH]ccc12 [Compound 4, (1-oxo-1,2-dihydroisoquinolin-5-yl)carbonohydrazonoyl dicyanide] | 89.7 | 85.3 | 91.1 | 99.3
CC(C)n1ccc2ccc(NN=C(C#N)C#N)cc2c1=O [Compound 3, (2-isopropyl-1-oxo-1,2-dihydroisoquinolin-7-yl)carbonohydrazonoyl dicyanide] | 98.2 | 50.2 | >100 | 112
Cc1cc2c(NN=C(C#N)C#N)cccc2c(=O)n1C [Compound 7, (2,3-dimethyl-1-oxo-1,2-dihydroisoquinolin-5-yl)carbonohydrazonoyl dicyanide] | 65.1 | 33.2 | 86.2 | 101.9
Cn1c(=O)n(C)c2cc(NN=C(C#N)C#N)ccc21 [Compound 22, (1,3-dimethyl-2-oxo-2,3-dihydro-1H-benzo[d]imidazol-5-yl)carbonohydrazonoyl dicyanide] | >100 | 93.5 | >100 | 120.7
N#CC(C#N)=NNc1ccc2c(c1)sc(=O)n2C(F)F [Compound 19, (3-(difluoromethyl)-2-oxo-2,3-dihydrobenzo[d]thiazol-6-yl)carbonohydrazonoyl dicyanide] | 75.7 | 52.5 | 40.5 | 125.3
CC(C)n1c(=O)n(C(C)C)c2ncc(NN=C(C#N)C#N)cc21 [Compound 34, (1,3-diisopropyl-2-oxo-2,3-dihydro-1H-imidazo[4,5-b]pyridin-6-yl)carbonohydrazonoyl dicyanide] | 88.8 | >100 | 99.1 | 120
CCn1c(=O)n(C)c2cc(NN=C(C#N)C#N)ccc21 [Compound 38, (1-ethyl-3-methyl-2-oxo-2,3-dihydro-1H-benzo[d]imidazol-5-yl)carbonohydrazonoyl dicyanide] | >100 | 98.9 | >100 | 106
Cn1c(=O)n(C)c2ncc(NN=C(C#N)C#N)cc21 [Compound 12, (1,3-dimethyl-2-oxo-2,3-dihydro-1H-imidazo[4,5-b]pyridin-6-yl)carbonohydrazonoyl dicyanide] | 92.2 | 99.6 | >100 | 145.2
Cn1c(=O)[nH]c2cc(NN=C(C#N)C#N)ccc21 [Compound 17, (1-methyl-2-oxo-2,3-dihydro-1H-benzo[d]imidazol-5-yl)carbonohydrazonoyl dicyanide] | 80.4 | 32.1 | 87.1 | 94.38
